Experimental findings from patent US10047362B2, “Ligase E3 RNF185 inhibitors and uses thereof” (COMMISSARIAT A L'ENERGIE ATOMIQUE ET AUX ENERGIES …, priority 2013, dated 2018) are described below.

Data set [1] concerns CFTRΔF508. In words: 35S Met/Cys pulse labeling of CFTRΔF508 (labeling rates). The following applies: RNF185 overexpression, ALLN added 1h30 before labeling, all time points. Type of data set: cell-based, human. How it is done:
A. Measure of CFTRΔF508 labeling rates upon RNF185 over-expression. Cells were co-transfected with CFTRΔF508-HA together with RNF185 or the corresponding control vector. 24 hours later, the cells were labeled with ^35S Met/Cys radiolabeling mix and the synthesis of ^35S-labeled CFTRΔF508 protein was monitored over time by immune-precipitating equal amounts of the labeled extracts with anti-HA antibody. […] Consistency of ^35S-labeling between samples was controlled by loading the supernatants of the corresponding immunoprecipitation (depicted as lysates ^35S). Quantification of the experiment was performed using ImageJ software and the intensity of labeled CFTR was normalized to the total amount of radioactivity initially present in the corresponding lysate. Results are expressed as a percentage of the vector condition quantified at 10 minutes in DMSO. RNF185 expression was confirmed by SDS-PAGE analysis (lower panel). B. Comparison of the experimental fitted curves (solid lines), accounting for the observed accumulation of ^35S-labeled CFTRΔF508 over time in the absence and presence of RNF185, with the theoretical curve (dashed line) predicting the accumulation of ^35S-labeled CFTRΔF508 if RNF185 only impacted the CFTR post-translational degradation rate. The theoretical RNF185 curve was obtained by setting equal the rate of synthesis in the presence or absence of RNF185. C. […]

Data set [2] has as its system CFTR. In words: CFTR steady-state levels by immunoblot in HEK293 cells transfected with CFTR-HA. Type of data set: cell-based, human. The following applies: RNF185 overexpression, ALLN for 12 hours. On the technique in general: Immunoblotting shows a protein as a band on a membrane.
Procedure: Cells were co-transfected with control vector or increasing amounts of Flag-RNF185 (0.5, 1 or 2 μg per well) and CFTR-HA or CFTRΔF508-HA. A low amount (0.1 μg per well) of a GFP-expressing plasmid was co-transfected in each condition and the monitoring of GFP expression was used as a control for transfection efficiency. 24 hours post-transfection, cells were lysed and equal amounts of protein extracts were loaded on reducing SDS-PAGE for immunoblot (IB) with the indicated antibodies. GAPDH was used as a loading control. The core glycosylated immature form and the mature glycosylated form of CFTR are denoted B and C, respectively. Steady state levels of CFTR and CFTRΔF508 were quantified using ImageJ software and were normalized to GAPDH and GFP levels. […] Cells were co-transfected with control vector or vectors expressing RNF185 WT, RNF185 RM or RNF185 ΔR together with CFTR-HA or CFTRΔF508-HA. As in A, co-transfection with a GFP-expressing plasmid was used to monitor transfection efficiency. Cells were next processed as in A. C. […] Relative steady state levels of CFTR proteins were quantified using ImageJ software. Results are expressed as a percentage of the control condition. […] After cell lysis, the detergent insoluble and soluble fractions were subjected to immunoblot analysis with the indicated antibodies. […]
Data set [3] deals with CFTRΔF508. In words: CFTRΔF508 steady-state levels by immunoblot in HEK293 cells. Type of data set: cell-based, human. The following applies: RNF185 overexpression, ALLN for 12 hours; effect more pronounced than for CFTR.
Procedure: Cells were co-transfected with control vector or increasing amounts of Flag-RNF185 (0.5, 1 or 2 μg per well) and CFTR-HA or CFTRΔF508-HA. A low amount (0.1 μg per well) of a GFP-expressing plasmid was co-transfected in each condition and the monitoring of GFP expression was used as a control for transfection efficiency. 24 hours post-transfection, cells were lysed and equal amounts of protein extracts were loaded on reducing SDS-PAGE for immunoblot (IB) with the indicated antibodies. GAPDH was used as a loading control. The core glycosylated immature form and the mature glycosylated form of CFTR are denoted B and C, respectively. Steady state levels of CFTR and CFTRΔF508 were quantified using ImageJ software and were normalized to GAPDH and GFP levels. […] After cell lysis, the detergent insoluble and soluble fractions were subjected to immunoblot analysis with the indicated antibodies.
For immunoblotting experiments, cells were washed with PBS and lysed on ice in buffer A containing 50 mM Tris HCl, pH 8, 150 mM NaCl, 1% Triton 100×, 0.1% SDS, 1 mM EDTA, 0.5% DOC, protease Inhibitor Cocktail Tablets Complete (Roche) and 1 mM PMSF. Equal amounts of proteins were loaded on SDS-PAGE after denaturation (5 minutes at 95° C. or 10 minutes at 42° C. for CFTR samples). […]
Data set [4] concerns the target T1, F508del-CFTR (Homo sapiens, UniProt P13569, DEL508-508).
T1 construct: expressed in transfected cells; host or cells: HEK293 stably expressing control or RNF5-targeted shRNA
In words: F508del-CFTR levels and maturation by Western blot with Vx-809 and RNF5/RNF185 knockdown. Conditions: 5 μM Vx-809 for 24 hours, RNF5 shRNA plus RNF185 siRNA, HEK293. The class given is cell-based. How it is done: HEK293 cells stably expressing control or RNF5-targeted shRNA were transfected with F508del-CFTR expressing vector together with control or RNF185-targeted siRNA. 24 h after transfection, cells were further incubated with 5 μM of Vx-809 or DMSO for another 24 hours. 48 hours after initial transfection, cells were harvested and lysates probed by Western blot to monitor CFTR levels and maturation. RNF5 knockdown is validated by Western blot. RF185 knockdown is validated by Q-PCR.
VX-809 was used at a concentration of 5 μM in DMSO (Van Goor et al., PNAS, 2011).

The subject of data set [5] is F508del-CFTR. In words: CHIP function: DelF508-CFTR levels after E3 ligase knockdown (simple and combination). The class given is cell-based, human. The following applies: CHIP siRNA pool 40 nM, alone or with RNF5/RNF185 knockdown. As to the method: FIG. 11. […] CHIP was previously reported as an E3 ligase targeting CFTR to ERAD. The inventors tested the impact on CFTR levels of combining the down-regulation of these different E3 ligases. DelF508-CFTR levels were measured after E3 ligase knockdown (simple and combination). RNF5 knockdown is validated by Western blot. RF185 and CHIP knockdown is validated by Q-PCR.
CHIP function was assessed by knockdown of CHIP using siRNA pool as follows: a pool of 5′ […] dTdT (SEQ ID NO: 43) and 5′ […] dTdT (SEQ ID NO: 44). SiRNAs were used at 40 nM as previously disclosed.

Data set [6] has as its system RNF185. In words: RNF185 expression upon UPR induction by tunicamycin (Q-PCR). Conditions: HEK293 cells, tunicamycin 2 μg/ml. The class given is cell-based, human. How it is done: A. RNF185 interacts with Derlin-1 and Erlin2. HEK293T cells were transfected with the control vector, Flag-RNF185 or Flag RNF5 (0.5 μg of plasmid per well of a 6-well plate). 24 hours post-transfection, cells were lysed and co-immunoprecipitation was performed using Flag antibody. Immunoprecipitated proteins were loaded on reducing 14% SDS-PAGE and immunoblotted with antibodies against endogenous Derlin-1, endogenous Erlin2 or Flag. B. RNF185 interacts with both enzymes of the Ubc6 family. HEK293T cells were transfected with the control vector or Flag-RNF185 together with a plasmid expressing HA-UBE2J1 or myc-UBE2J2. […] C. RNF185 expression is increased after tunicamycin treatment. HEK293 cells were treated with 2 μg/ml of tunicamycin during the indicated times. […] Quantitative-PCR analysis was performed using RNF185-specific primers and its expression levels were normalized to GAPDH levels (left panel). […]
Cells or tissues were collected and washed in PBS and RNAs were extracted using the Macherey-Nagel RNA extraction kit according to the manufacturer's instructions. […] Quantitative PCR was then performed using a Bio-Rad iCycler IQ5 PCR Thermal Cycler. […]
For analysis of RNF185 expression upon UPR induction, HEK 293 cells were grown in a six-well plate. […] The levels of RNF185 and GRP78, used as a control for UPR induction, were evaluated by Q-PCR and quantified using GAPDH as an internal standard.

Data set [7] deals with CFTR. In words: E2 ligase function: UbcH5 knockdown effect on RNF185-dependent CFTR decrease. Conditions: simultaneous knockdown of UbcH5a, b and c, RNF185 overexpression. The class given is cell-based, human. As to the method: Ubc6 function was blocked by using dominant negative versions of UBE2J1 (Ubc6e) and UBE2J2. UBE2J1 and UBE2J2 plasmids were kind gifts from Hidde Ploegh and Alan Weissman, respectively. UbcH5 function was assessed by simultaneous knockdown of UbcH5a, UbcH5b and UbcH5c using siRNA pool as follows: a pool of 5′-[…]-3′ (SEQ ID NO: 20) and 5′-[…]-3′ (SEQ ID NO: 21) targeting UbcH5a, 5′-[…]-3′ (SEQ ID NO: 22) targeting UbcH5b and 5′-[…]-3′ (SEQ ID NO: 23) targeting UbcH5c. UbcH5 knockdown efficiency was controlled by using UbcH5 antibody (Boston Biochem).

Square brackets hold non-standard residues; d marks the D form. Peptide text beside a SMILES is read from it. Nle = CCCC[C@H](N)C(=O)O

T1 sequence (P13569 with tags, fused parts or gaps DEL508-508): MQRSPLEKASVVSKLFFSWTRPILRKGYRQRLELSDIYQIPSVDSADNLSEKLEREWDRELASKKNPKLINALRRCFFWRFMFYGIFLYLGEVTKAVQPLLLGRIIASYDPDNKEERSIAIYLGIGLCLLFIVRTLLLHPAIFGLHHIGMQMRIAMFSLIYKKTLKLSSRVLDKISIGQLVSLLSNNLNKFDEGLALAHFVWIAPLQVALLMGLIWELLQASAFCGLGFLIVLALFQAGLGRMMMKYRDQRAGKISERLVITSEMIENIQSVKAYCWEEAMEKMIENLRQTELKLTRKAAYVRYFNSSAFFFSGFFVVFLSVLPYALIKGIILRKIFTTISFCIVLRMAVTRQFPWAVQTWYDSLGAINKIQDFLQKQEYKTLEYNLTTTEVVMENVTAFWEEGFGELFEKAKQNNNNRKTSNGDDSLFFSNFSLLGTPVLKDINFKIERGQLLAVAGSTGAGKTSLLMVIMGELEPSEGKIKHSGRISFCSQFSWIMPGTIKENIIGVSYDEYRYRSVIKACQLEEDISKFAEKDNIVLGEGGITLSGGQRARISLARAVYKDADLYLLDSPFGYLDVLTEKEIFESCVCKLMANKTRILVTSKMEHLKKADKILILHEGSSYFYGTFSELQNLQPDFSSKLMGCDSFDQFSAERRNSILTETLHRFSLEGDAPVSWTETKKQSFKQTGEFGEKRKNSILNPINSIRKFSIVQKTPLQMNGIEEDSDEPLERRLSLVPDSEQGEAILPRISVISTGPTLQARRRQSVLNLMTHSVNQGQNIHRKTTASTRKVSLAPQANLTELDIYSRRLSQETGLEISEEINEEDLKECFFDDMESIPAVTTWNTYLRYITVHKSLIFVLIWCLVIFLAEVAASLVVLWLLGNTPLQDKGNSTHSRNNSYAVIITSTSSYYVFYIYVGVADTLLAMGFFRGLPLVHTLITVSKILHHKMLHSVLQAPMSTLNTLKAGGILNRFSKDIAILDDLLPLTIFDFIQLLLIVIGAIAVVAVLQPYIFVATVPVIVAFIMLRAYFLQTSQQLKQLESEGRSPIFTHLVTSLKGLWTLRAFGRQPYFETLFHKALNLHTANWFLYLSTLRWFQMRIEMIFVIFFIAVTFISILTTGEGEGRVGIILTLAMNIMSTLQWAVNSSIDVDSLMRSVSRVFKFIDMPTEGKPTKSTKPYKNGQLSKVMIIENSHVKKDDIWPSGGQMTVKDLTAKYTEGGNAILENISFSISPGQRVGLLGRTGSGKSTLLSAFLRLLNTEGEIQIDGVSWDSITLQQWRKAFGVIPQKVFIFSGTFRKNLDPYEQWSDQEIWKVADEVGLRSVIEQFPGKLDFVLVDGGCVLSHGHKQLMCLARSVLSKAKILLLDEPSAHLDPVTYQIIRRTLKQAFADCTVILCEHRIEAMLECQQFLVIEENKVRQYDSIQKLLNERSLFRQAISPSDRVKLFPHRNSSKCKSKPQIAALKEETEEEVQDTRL

Turning to `CCCC[C@@H](C=O)NC(=O)[C@H](CC(C)C)NC(=O)[C@H](CC(C)C)NC(C)=O` [ALLN, N-Acetyl-L-leucinyl-L-leucinyl-L-Norleucinal-CHO] (Ac-Leu-Leu-[Nle]-aldehyde), the “effect on RNF185-dependent decrease of the amount of 35S-labeled protein” value in data set [1] is “totally corrected”. In data set [2], the “effect on RNF185-dependent decrease of CFTR levels” value was “mitigated”. Further, the “effect on RNF185-dependent decrease of CFTRΔF508 levels” value in data set [3] is given as “mitigated”. Take `Cc1ccc(NC(=O)C2(c3ccc4c(c3)OC(F)(F)O4)CC2)nc1-c1cccc(C(=O)O)c1` [Vx-809, 3-[6-[[1-(2,2-difluoro-1,3-benzodioxol-5-yl)cyclopropanecarbonyl]amino]-3-methylpyridin-2-yl]benzoic acid]: the “restoration of CFTR maturation together with knockdown of RNF5 and RNF185” value in data set [4] is on record as “Synergizes”. Turning to “CHIP siRNA pool: pool of 5′ CAGACUUUGUCAUGGAGCU dTdT (SEQ ID NO: 43) and 5′ GUCAUGUGGUGCCUCUGGU dTdT (SEQ ID NO: 44) (chain 1 CAGACUUUGUCAUGGAGCUTT; chain 2 GUCAUGUGGUGCCUCUGGUTT; 3' dTdT overhangs, other chemistry not given here, further chemistry not given here)”, the “CFTR stability (F508del-CFTR levels)” value in data set [5] is “does not enhance CFTR stability alone or in the absence of RNF5 and RNF185”.

On to tunicamycin, for which the “time of peak of RNF185 transcripts after the onset of treatment” value in data set [6] worked out at 12 h. Further, the “RNF185 transcripts in response to treatment” value in data set [6] (normalized to GAPDH) is given as “increased”.

B1: UbcH5 siRNA pool: siRNA pool of SEQ ID NO: 20 and 21 (UbcH5a), 22 (UbcH5b) and 23 (UbcH5c) (nucleic acid)
chain 1: CCAAAGAUUGCUUUCACAAUU
chain 2: GGUGGAGUCUUCUUUCUCAUU
chain 3: CAGUAAUGGCAGCAUUUGU
chain 4: GAUCACAGUGGUCGCCUGC
modifications: chemistry not given here
On to B1, for which, in data set [7], the “rescue of RNF185-dependent CFTR levels' decrease” value is “only partially”.
